Laboratory results: patent publication US20080026996A1, “Selective Vpac2 Receptor Reptide Agonists” (ELI LILLY AND COMPANY, priority 2004, published 2008)
Where no end group is shown, it is not given here. [ ]: non-standard residue; d: D form. The star is where a group is joined. hArg = N=C(N)NCCCC[C@H](N)C(=O)O; Orn = NCCC[C@H](N)C(=O)O; Hexanoyl = CCCCCC(=O)*; Aib = CC(C)(N)C(=O)O

What was measured:
[1] = target: T1, human VPAC2 (Homo sapiens, UniProt P41587); test: Alpha screen cAMP in vitro potency, human VPAC2 receptor; type: cell-based; settings: cAMP generation; single result from two analyses performed in a single run; read-out: Human VPAC2 Receptor: Alpha Screen EC50
T1 construct: expressed in transfected cells
T1 sequence (P41587 24-438): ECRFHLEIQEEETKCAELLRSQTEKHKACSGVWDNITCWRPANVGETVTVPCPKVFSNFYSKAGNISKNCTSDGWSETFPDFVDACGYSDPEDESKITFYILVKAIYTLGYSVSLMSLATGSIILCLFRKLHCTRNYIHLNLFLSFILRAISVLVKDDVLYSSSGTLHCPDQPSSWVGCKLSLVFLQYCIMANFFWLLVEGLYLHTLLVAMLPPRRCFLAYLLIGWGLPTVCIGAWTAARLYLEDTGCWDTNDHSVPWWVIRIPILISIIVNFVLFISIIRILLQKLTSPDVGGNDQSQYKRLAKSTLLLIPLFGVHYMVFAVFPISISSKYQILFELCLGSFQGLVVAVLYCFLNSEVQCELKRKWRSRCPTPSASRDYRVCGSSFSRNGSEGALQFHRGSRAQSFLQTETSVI
Outline: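 This followed a 60 min stimulation of 50,000 enzyme-free-dissociated cells per point with acceptor beads in stimulation buffer.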

[2] = target: T2, human VPAC1 (Homo sapiens, UniProt P32241); test: Filter binding assay, membranes of cells transiently transfected with human VPAC1, 125I-labeled VIP tracer (Table 2); set-up: expressed in transfected cells; settings: read-out: Human VPAC1 Receptor Binding
T2 sequence (P32241 31-457): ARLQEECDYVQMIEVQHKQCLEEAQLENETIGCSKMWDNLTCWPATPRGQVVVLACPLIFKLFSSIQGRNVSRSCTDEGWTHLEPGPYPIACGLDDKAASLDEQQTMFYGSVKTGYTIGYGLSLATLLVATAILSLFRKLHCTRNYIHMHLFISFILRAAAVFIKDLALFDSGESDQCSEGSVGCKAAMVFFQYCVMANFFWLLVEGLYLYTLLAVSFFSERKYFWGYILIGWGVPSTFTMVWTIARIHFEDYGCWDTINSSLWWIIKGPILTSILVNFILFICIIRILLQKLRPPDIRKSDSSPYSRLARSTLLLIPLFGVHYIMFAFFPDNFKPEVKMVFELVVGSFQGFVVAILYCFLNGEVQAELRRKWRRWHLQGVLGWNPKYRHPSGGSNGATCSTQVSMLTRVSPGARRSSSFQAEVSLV
Outline: (§1)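 Membranes 2.5 μg/well; tracer ~40000 cpm; buffer 25 mM HEPES pH 7.4, 0.5% protease-free BSA; 1 h incubation, shaking. Glass-fibre filtration (0.5% polyethyleneamine presoak, 0.2% BSA block), 3× HEPES wash, dry 1 h at 60° C, scintillation count.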

[3] = target: T1, human VPAC2; test: Filter binding assay, membranes of stable VPAC2 cell line, 125I-labeled VIP tracer (Table 2); settings: read-out: Human VPAC2 Receptor Binding
Outline: as §1

[4] = target: T3, rat VPAC2 receptor (Rattus norvegicus, UniProt P35000); test: DiscoveRx in vitro potency, CHO-PO cells transiently transfected with rat VPAC 2 receptor DNA; type: cell-based; set-up: expressed in transfected cells; host or cells: CHO-PO, transient
T3 sequence (P35000 23-437): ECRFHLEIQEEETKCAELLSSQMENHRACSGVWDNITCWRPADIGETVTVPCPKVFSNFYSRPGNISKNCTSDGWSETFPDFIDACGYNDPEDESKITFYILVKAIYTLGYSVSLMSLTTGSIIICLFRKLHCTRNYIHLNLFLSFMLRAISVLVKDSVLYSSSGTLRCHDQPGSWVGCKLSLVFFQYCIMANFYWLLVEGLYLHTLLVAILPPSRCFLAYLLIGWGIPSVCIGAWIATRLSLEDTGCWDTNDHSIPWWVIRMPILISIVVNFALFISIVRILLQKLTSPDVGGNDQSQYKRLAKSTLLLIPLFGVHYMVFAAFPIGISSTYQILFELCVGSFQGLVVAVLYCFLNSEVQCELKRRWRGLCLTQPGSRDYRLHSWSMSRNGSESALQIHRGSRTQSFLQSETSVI
Description: Also, the cells are washed twice. […] The stimuli are present for 30 minutes. Then, the assay buffer is gently removed.

[5] = Rat serum stability studies (remaining active peptide by DiscoveRx cAMP on CHO-VPAC2 cells); type: in vitro ADME
Outline: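 EC50 from a DiscoveRx cAMP read-out on CHO-VPAC2 cells indexes how much peptide stays active after 18 h in rat serum at 37° C without aprotinin, against an aprotinin-protected 4° C aliquot.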

[6] = target: T4, human PAC1 (Homo sapiens, UniProt P41586); test: Filter binding assay, membranes of cells transiently transfected with human PAC1, 125I-labeled PACAP-27 tracer (Table 2); set-up: expressed in transfected cells; settings: read-out: Human PAC1 Receptor Binding
T4 sequence (P41586 21-468): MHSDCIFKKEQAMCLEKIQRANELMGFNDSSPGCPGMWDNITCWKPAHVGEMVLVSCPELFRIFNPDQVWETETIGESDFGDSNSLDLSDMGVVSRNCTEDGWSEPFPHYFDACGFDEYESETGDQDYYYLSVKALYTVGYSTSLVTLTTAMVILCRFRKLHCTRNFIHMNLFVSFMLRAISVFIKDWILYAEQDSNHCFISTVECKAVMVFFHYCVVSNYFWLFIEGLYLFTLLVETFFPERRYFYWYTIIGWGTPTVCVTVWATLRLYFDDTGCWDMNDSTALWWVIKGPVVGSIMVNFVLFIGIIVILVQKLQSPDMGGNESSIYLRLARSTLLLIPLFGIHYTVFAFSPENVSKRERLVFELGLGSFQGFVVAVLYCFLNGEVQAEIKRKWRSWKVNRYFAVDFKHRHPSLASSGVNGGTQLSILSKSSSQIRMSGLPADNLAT
Outline: as §1

For “Hexanoyl-HSDAVFTDNYTR[Aib]R[Aib]QVAA[Aib]KYLQSIKNKRYGGPSSGAPPPS [Agonist P346]”, the EC50 [1] was 0.23 nM, the IC50 [2] was greater than 3000 nM and the IC50 [3] was 0.25 nM. For the same compound, the EC50 [4] was 0.06 nM, the “Rat Serum Stability (Estimated purity in % after 72 hours)” value [5] was 27.6% and the “Rat Serum Stability (estimated purity in % after 18 hours)” value [5] was 43.44%.
In the case of “Hexanoyl-HSDAVFTDNYTRLRKQVAAQKYLQSIKNKRYGGPSSGAPPPS [Agonist P150]”, the EC50 [1] is reported as 0.18 nM, the IC50 [2] is reported as 444 nM and the IC50 [3] is reported as 0.25 nM. The EC50 [4] was 0.1 nM, the “Rat Serum Stability (estimated purity in % after 18 hours)” value [5] was 0.21% and the IC50 [6] was 916 nM.
Work on “Hexanoyl-HSDAVFTDQYTRLR[Aib]QVAA[Aib]KYLQSIKQKRYGGPSSGAPPPS [Agonist P315]” yielded an EC50 [1] of 0.19 nM, an IC50 [2] greater than 3000 nM and an IC50 [3] of 0.29 nM. The EC50 [4] was 0.04 nM and the “Rat Serum Stability (estimated purity in % after 18 hours)” value [5] was 24.00%.
With “Hexanoyl-HSDAVFTDNYTRLK[Aib]QVAA[Aib]KYLQSIKNKRYGGPSSGAPPPS [Agonist P318]” the EC50 [1] was 0.32 nM, the IC50 [2] was greater than 3000 nM and the IC50 [3] was 0.63 nM. For the same compound, the EC50 [4] was 0.09 nM, the “Rat Serum Stability (estimated purity in % after 18 hours)” value [5] was 29.95% and the IC50 [6] was greater than 25000 nM.
“Hexanoyl-HSDAVFTDNYTRLRKQVAAK[Aib]YLQSIKNKRYGGPSSGAPPPS [Agonist P170]” gave an EC50 [1] of 0.18 nM, an IC50 [2] of 275 nM and an IC50 [3] of 0.34 nM. The EC50 [4] was 0.15 nM, the “Rat Serum Stability (estimated purity in % after 18 hours)” value [5] was 0.31% and the IC50 [6] was 200 nM.
For “Hexanoyl-HSDAVFTDNYTRLR[Aib]QKAA[Aib]KYLQSIKNKRYGGPSSGAPPPS [Agonist P323]”, the EC50 [1] was 0.23 nM, the IC50 [2] was greater than 3000 nM and the IC50 [3] was 0.32 nM. For the same compound, the EC50 [4] was 0.07 nM and the “Rat Serum Stability (estimated purity in % after 18 hours)” value [5] was 16.81%.
“Hexanoyl-HSDAVFTDNYTRLR[Aib]QVAA[Aib][Orn]YLQSIKNKRYGGPSSGAPPPS [Agonist P342]” showed an EC50 [1] of 0.21 nM, an IC50 [2] greater than 3000 nM and an IC50 [3] of 0.35 nM. For the same compound, the EC50 [4] was 0.06 nM and the “Rat Serum Stability (estimated purity in % after 18 hours)” value [5] was 25.96%.
Compound “Hexanoyl-HSDAVFTDNYTRL[hArg][Orn]QVAAKKYLQSIKNKRYGGPSSGAPPPS [Agonist P308]” has an EC50 [1] of 0.26 nM, an IC50 [2] of 262 nM and an IC50 [3] of 0.34 nM. The EC50 [4] was 0.09 nM and the “Rat Serum Stability (estimated purity in % after 18 hours)” value [5] was 0.97%.
In the case of `CCCCCC(=O)N[C@@H](Cc1c[nH]cn1)C(=O)N[C@@H](CO)C(=O)N[C@@H](CC(=O)O)C(=O)N[C@@H](C)C(=O)N[C@H](C(=O)N[C@@H](Cc1ccccc1)C(=O)N[C@H](C(=O)N[C@@H](CC(=O)O)C(=O)N[C@@H](CC(N)=O)C(=O)N[C@@H](Cc1ccc(O)cc1)C(=O)N[C@H](C(=O)N[C@@H](CCCCNC(=N)N)C(=O)N[C@@H](CC(C)C)C(=O)N[C@@H](CCCNC(=N)N)C(=O)NC(C)(C)C(=O)N[C@@H](CCC(N)=O)C(=O)N[C@H](C(=O)N[C@@H](C)C(=O)N[C@@H](C)C(=O)NC(C)(C)C(=O)N[C@@H](CCCCN)C(=O)N[C@@H](Cc1ccc(O)cc1)C(=O)N[C@@H](CC(C)C)C(=O)N[C@@H](CCC(N)=O)C(=O)N[C@@H](CO)C(=O)N[C@H](C(=O)N[C@@H](CCCCNC(=N)N)C(=O)N[C@@H](CC(N)=O)C(=O)N[C@@H](CCCCNC(=N)N)C(=O)N[C@@H](CCCCNC(=N)N)C(=O)N[C@@H](Cc1ccc(O)cc1)C(=O)NCC(=O)NCC(=O)N1CCC[C@H]1C(=O)N[C@@H](CO)C(=O)N[C@@H](CO)C(=O)NCC(=O)N[C@@H](C)C(=O)N1CCC[C@H]1C(=O)N1CCC[C@H]1C(=O)N1CCC[C@H]1C(=O)N[C@@H](CO)C(=O)O)[C@@H](C)CC)C(C)C)[C@@H](C)O)[C@@H](C)O)C(C)C` [Agonist P338], the EC50 [1] is reported as 0.46 nM, the IC50 [2] is reported as greater than 3000 nM and the IC50 [3] is reported as 0.76 nM. For the same compound, the EC50 [4] was 0.07 nM and the “Rat Serum Stability (estimated purity in % after 18 hours)” value [5] was 36.61%.
Compound `CCCCCC(=O)N[C@@H](Cc1c[nH]cn1)C(=O)N[C@@H](CO)C(=O)N[C@@H](CC(=O)O)C(=O)N[C@@H](C)C(=O)N[C@H](C(=O)N[C@@H](Cc1ccccc1)C(=O)N[C@H](C(=O)N[C@@H](CC(=O)O)C(=O)N[C@@H](CC(N)=O)C(=O)N[C@@H](Cc1ccc(O)cc1)C(=O)N[C@H](C(=O)N[C@@H](CCCNC(=N)N)C(=O)N[C@@H](CC(C)C)C(=O)N[C@@H](CCCNC(=N)N)C(=O)NC(C)(C)C(=O)N[C@@H](CCC(N)=O)C(=O)N[C@H](C(=O)N[C@@H](C)C(=O)N[C@@H](C)C(=O)NC(C)(C)C(=O)N[C@@H](CCCCN)C(=O)N[C@@H](Cc1ccc(O)cc1)C(=O)N[C@@H](CC(C)C)C(=O)N[C@@H](CCC(N)=O)C(=O)N[C@@H](CO)C(=O)N[C@H](C(=O)N[C@@H](CCCN)C(=O)N[C@@H](CCCN)C(=O)NCC(=O)NCC(=O)N1CCC[C@H]1C(=O)N[C@@H](CO)C(=O)N[C@@H](CO)C(=O)NCC(=O)N[C@@H](C)C(=O)N1CCC[C@H]1C(=O)N1CCC[C@H]1C(=O)N1CCC[C@H]1C(=O)N[C@@H](CO)C(=O)O)[C@@H](C)CC)C(C)C)[C@@H](C)O)[C@@H](C)O)C(C)C` [Agonist P352] has an EC50 [1] of 0.14 nM, an IC50 [2] greater than 3000 nM and an IC50 [3] of 0.6 nM. The EC50 [4] was 0.09 nM, the “Rat Serum Stability (Estimated purity in % after 72 hours)” value [5] was 2.2% and the “Rat Serum Stability (estimated purity in % after 18 hours)” value [5] was 45.09%.
“Hexanoyl-HSDAVFTDNYT[Orn]LR[Aib]QVAA[Aib]KYLQSIKNKRYGGPSSGAPPPS [Agonist P344]” gave an EC50 [1] of 0.13 nM, an IC50 [2] greater than 3000 nM and an IC50 [3] of 0.25 nM. For the same compound, the EC50 [4] was 0.06 nM, the “Rat Serum Stability (Estimated purity in % after 72 hours)” value [5] was 43.0% and the “Rat Serum Stability (estimated purity in % after 18 hours)” value [5] was 50.19%.
